system: MMP-2; assay: Substrate phage display with NGS: relative probability (RP) of P3-P1' tetramer clusters; assay type: biochemical, human; conditions: MMP2 - no binning; average relative probability (RP) of the P3-P1' tetramer; redundant tetramers have been averaged out

Substance | avg_RP
ADLI | 0.5875
AENL | 6.7504
AFHI | 0.4414
AFHL | 8.795
AFSL | 10.3321
AFTM | 0
AGHL | 15.0568
AGRL | 3.4801
AHAL | 27.1646
AHHL | 16.717
AHPL | 24.4555
AKHL | 9.4662
AKML | 2.8249
AKPL | 20.8275
ALAM | 20.8553
ALDL | 2.4602
ALDM | 0.2655
ALGL | 26.3282
ALNM | 13.7479
ALPM | 15.3537
ALWL | 7.2418
ANMI | 1.6014
ANSI | 0.424

Substance | avg_RP
ANYI | 1.6587
AQEL | 0.1876
AQHI | 7.3783
AQHL | 16.6778
AQMI | 2.3525
ASRL | 6.8948
AWAL | 14.3616
AWHL | 5.5662
AWMM | 1.3213
AWNM | 2.0017
FATL | 9.1497
FQWL | 13.3419
GAKL | 0.1271
GAWL | 11.7256
GDRL | 0
GFAL | 0.4341
GHNL | 0.2721
GHRL | 0.0505
GLHL | 0.1267
GMAL | 1.3132
GNFL | 0.2435
GQGL | 0.1555
GRPL | 5.2852

Substance | avg_RP
GWDL | 0
GWRL | 0.1031
HLNI | 0.0853
HMAL | 5.2214
HMHM | 0
HQSL | 10.5998
HQWL | 19.2059
HRSI | 0.1819
IASL | 32.8949
IDLL | 0.1325
ILHL | 15.3505
INFL | 7.787
INQL | 1.5518
IRHL | 22.5548
IRWL | 25.5858
IWAL | 5.7953
IYGL | 9.4242
LAQI | 17.7137
LARL | 21.3172
LFHL | 2.7376
LLHL | 16.5808
LMAL | 15.4189

same assay, conditions: MMP2 - no binning; average relative probability of the P3-P1' tetramer; redundant tetramers have been averaged out

Substance | avg_RP
AFNL | 16.2959
AGAL | 19.769
AHLL | 1.4368
AHQL | 4.1004
AHSL | 21.0212
AISM | 11.4166
ALAL | 22.1184
ALHL | 14.6488
ALNL | 17.2813
AMNI | 4.1669
AMNL | 16.2852
AMRM | 0.1716
ANYL | 3.9008
AQAL | 22.7358
AQDL | 0.5121
AQML | 8.608
AQNL | 19.4627
AQPL | 14.4283
AQSL | 18.365
AQYL | 7.443
ARAW | 17.4628
ARFL | 8.5771

Substance | avg_RP
ARML | 2.9901
ARQL | 3.2139
ARSL | 17.186
ARSM | 12.2991
ARWL | 19.0362
ASAL | 28.9092
ASFL | 10.8605
ASGL | 25.6721
ASHM | 12.3873
ASNL | 28.7368
AVAL | 27.4369
AWGL | 17.7408
AWYL | 0.0964
AYHM | 3.7603
AYNL | 20.8713
AYNM | 10.8408
FAAL | 18.8584
FEHL | 1.2103
FGNL | 26.0275
FLHL | 0.8093
FLHM | 0.2069
FLHW | 0.0579

Substance | avg_RP
FQSL | 13.5551
FRGL | 7.4752
FRML | 0.2112
FRNL | 9.8211
FRSM | 5.3885
FSEL | 12.1057
FSHM | 11.0227
FSNL | 24
FSQL | 9.0646
FWHL | 0
GAAL | 15.7207
GANL | 13.1428
GASL | 9.5377
GFQL | 0.0467
GFSL | 0.0975
GLAL | 0.6848
GLEL | 0
GLNL | 0.5789
GMNM | 0
GMRL | 0
GNRL | 0.0463
GNSL | 0.2884

Substance | avg_RP
GQHL | 1.1642
GWAL | 0.0916
GYSL | 0.0471
HMRL | 0.0574
HQNL | 17.7487
HYSL | 0.1694
IAHL | 32.9345
IAYL | 27.9862
IESM | 2.7483
IFRL | 0.1412
IGNF | 24.8743
IHFL | 4.5373
INML | 5.8285
IQSL | 25.2682
IQTM | 7.1082
ISFM | 23.3965
ISHL | 30.7015
ISYM | 22.3091
IWKL | 0.0593
IYAL | 6.9669
IYEL | 0.2382
IYNL | 11.935

Substance | avg_RP
LAAM [P3-P1' tetramer cluster] | 30.6825
LAHI | 25.9365
LAHV | 11.7405
LAKL | 21.2737
LANL | 34.4823
LASL [P3-P1' tetramer cluster] | 31.1996
LASQ | 21.0724
LDLL | 0.0715
LDWM | 7.0331
LGCL | 12.7261
LGHL [P3-P1' tetramer cluster] | 31.1653
LGML | 29.0922
LGMM | 22.231
LGTL | 24.6198
LHSL | 18.7402
LKHL | 11.1441
LLDL | 0.3542
LLNM | 13.7728

same assay, conditions: MMP2 - no binning; average relative probability of the tetramer; redundant tetramers averaged out

Substance | avg_RP
AHGI | 8.8809
AHGL | 23.6336
AIHL | 13.4941
AIPL | 24.8904
ALGI | 18.2164
ALNF | 9.2594
ALPL | 22.1772
AMGL | 23.7576
ANAL | 20.3526
ANNL | 18.8719
ANSL | 10.0738
ARAM | 25.2992
ARGL | 25.9476
ARKL | 0
ARLL | 1.104
ARNL | 24.6947
ARPL | 27.8706
ASHL | 19.8208
ATAL | 22.9481
AVAI | 20.993
AWNL | 14.0049

Substance | avg_RP
AWSL | 7.006
AYHL | 15.3364
AYNF | 6.7246
AYSL | 18.7071
FAHL | 19.6504
FGAL | 25.0961
FRHL | 3.942
FSHL | 16.5216
GAHL | 8.4636
GLYL | 0.0762
GRAL | 7.9443
GRAM | 2.5449
GRHL | 3.5979
GRNL | 8.8117
GSGL | 1.9698
GSHL | 4.2785
GYAL | 0.5867
GYHL | 0.0815
HAHL | 20.0775
HAWM | 17.1047
HFHL | 0.0941

Substance | avg_RP
HLAL | 11.3603
HRSL | 7.8508
IAAM | 28.6184
IALL | 16.3586
IATL | 24.2778
IEYL | 5.366
IGEI | 19.2988
INAL | 12.2423
IRFL | 12.1004
IRML | 12.7446
IRYL | 17.8741
ISAL | 31.8319
ISNW | 26.0602
ISWM | 28.3587
IWSL | 5.404
LAAI | 28.8382
LAAW | 24.7038
LGNL | 33.3542
LGYL | 24.8925
LLAM | 10.8556
LLSL | 2.0177

same assay, conditions: MMP2; RP of matching P3-P1' tetramer; common set of MMP2-9 selectome; RP above KL threshold

Substance | relative probability (RP) (acc.to MMP2)
AGSL | 14.97

same assay, conditions: P3-P1' tetramer matching the MS detected MMP2 cleavage sequence; RP_above_4.5

Substance | relative probability (RP) of matching tetramer
AGSL | 14.97

same assay, conditions: tetramer annotation of MMP-2 cleavage sites in all substrates from MEROPS

Substance | relative probability (RP)
AAEL | 15.51
AAGL | 29.36

same assay, conditions: tetramer annotation of MMP-2 cleavage sites in physiologic substrates from MEROPS

Substance | relative probability (RP)
FAPG | 0.08
FSRI | 0.35

same assay, conditions: tetramer clusters unique to the MMP-2 selectome, MMP-2 RP

Substance | relative_probability
HANL [P3-P1' tetramer cluster] | 30.86
IAAI [P3-P1' tetramer cluster] | 29.40
IGQL [P3-P1' tetramer cluster] | 30.24
LAAM [P3-P1' tetramer cluster] | 30.68
LANI [P3-P1' tetramer cluster] | 29.81
LANW [P3-P1' tetramer cluster] | 29.93
LASL [P3-P1' tetramer cluster] | 31.20
LGAM [P3-P1' tetramer cluster] | 29.74
LGEL [P3-P1' tetramer cluster] | 29.44
LGHL [P3-P1' tetramer cluster] | 31.17
LGNM [P3-P1' tetramer cluster] | 29.28

From publication PMC7932537, “Quantitative profiling of protease specificity” (PLoS Computational Biology, 2021)
